Broadly, the Ki is the dissociation constant of the complex between target and ligand, obtained from inhibition or displacement. Lower therefore signals higher affinity. In general, IC50 refers to the midpoint of a concentration-inhibition curve. A word on the Cmax: it is the maximum level reached in the sampled fluid or tissue. As a reminder, the AUC(0-t) is the area under the concentration-time curve up to a stated or last time point.

Each structure is given as a SMILES string. Where two headings read alike, the source gives them in different places. A value given as a limit tells only on which side of the number the result lay.

From patent US6534524B1, “Indazole compounds and pharmaceutical compositions for inhibiting protein kinases, and methods for their use” (Agouron Pharmaceuticals, Inc., priority 1999, dated 2003) come the findings set out here.

Data set [1] has as its target unphosphorylated VEGF-R2Δ50 (FLVK) (Homo sapiens, UniProt P35968, DEL940-989/E990V). In words: VEGF-R2 coupled spectrophotometric assay, unphosphorylated VEGF-R2Δ50 (FLVK). The following applies: FLVK Ki, Table 1.
Data set [2] concerns human umbilical vein endothelial cells (HUVEC). In words: HUVEC proliferation assay (VEGF-stimulated, MTT). The data set is classed as cell-based. Conditions: Homo sapiens, HUVEC, + albumin; read-out: HUVEC + albumin IC50.
Data set [3] in a line: Determination of inhibitor concentration in mouse plasma after intraperitoneal and oral dosing. It is filed as in vivo. Conditions: PO. How it is done: Blood collection was via ocular bleed at 0.5, 1, 4 hr with the final time point, 7 hour, via intracardiac puncture. The blood was centrifuged to collect plasma, which was then stored at −80° C. until analysis. Samples were prepared for analysis using an internal standard and sodium hydroxide. After vortexing, ethyl acetate was added and mixed for 15-20 minutes at ambient temperature. […] The samples were then analyzed via HPLC or LC-MS. Compound levels were quantitated by generating a standard curve of known compound concentration in mouse plasma.

The mark [4] stands for this setting: 25 mg/kg, vehicle PEG400:H2O pH 2.3 30:70.
Setting [5] is: female, 25 mg/kg, vehicle PEG400:H2O pH 2.3 30:70, read-out: Cmin (7 hr conc.).
The mark [6] stands for this setting: female, 8 mg/kg, vehicle 0.5% CMC.
Setting [7] is: female, 8 mg/kg, vehicle 0.5% CMC, read-out: Cmax.
Where [8] appears, read: female, 8 mg/kg, vehicle 0.5% CMC, read-out: Cmin (7 hr conc.).
Where [9] appears, read: female, 25 mg/kg, vehicle 0.5% CMC.
[10] abbreviates: female, 25 mg/kg, vehicle 0.5% CMC, read-out: Cmax.
Where [11] appears, read: female, 25 mg/kg, vehicle 0.5% CMC, read-out: Cmin (7 hr conc.).
Where [12] appears, read: female, 40 mg/kg, vehicle 0.5% CMC.
Setting [13] is: female, 40 mg/kg, vehicle 0.5% CMC, read-out: Cmax.
[14] abbreviates: female, 40 mg/kg, vehicle 0.5% CMC, read-out: Cmin (7 hr conc.).
Where [15] appears, read: female, 200 mg/kg, vehicle 0.5% CMC.
[16] abbreviates: female, 200 mg/kg, vehicle 0.5% CMC, read-out: Cmax.
[17] abbreviates: female, 200 mg/kg, vehicle 0.5% CMC, read-out: Cmin (7 hr conc.).

Sequence of unphosphorylated VEGF-R2Δ50 (FLVK) (P35968 with tags, fused parts or gaps DEL940-989/E990V limits assumed): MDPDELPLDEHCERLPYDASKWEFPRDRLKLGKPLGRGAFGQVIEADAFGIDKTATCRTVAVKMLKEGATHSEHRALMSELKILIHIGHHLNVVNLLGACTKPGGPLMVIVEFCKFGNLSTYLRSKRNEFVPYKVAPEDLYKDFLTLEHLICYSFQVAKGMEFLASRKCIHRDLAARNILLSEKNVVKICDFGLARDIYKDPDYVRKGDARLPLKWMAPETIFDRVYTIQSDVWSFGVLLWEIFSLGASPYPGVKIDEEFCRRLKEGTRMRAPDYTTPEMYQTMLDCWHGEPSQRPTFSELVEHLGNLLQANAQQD

On to `COc1cc(-c2ccc3c(-c4cc5ccccc5[nH]4)n[nH]c3c2)ccc1O` [Example 2(d), 3-(1H-Indol-2-yl)-6-(3-methoxy-4-hydroxy-phenyl)-1H-indazole], for which the Ki in data set [1] stood at 3.7 nM.

As to `Oc1ccc(-c2ccc3c(-c4cc5ccccc5o4)n[nH]c3c2)cc1OCc1ccccc1` [Example 2(e), 3-(Benzofuran-2-yl)-6-(3-benzyloxy-4-hydroxy-phenyl)-1H-indazole], the affinity in data set [1] corresponds to a Ki of 40 nM.

For the compound `Cc1cnc(C(=O)Nc2cccc(Oc3ccc4c(/C=C/c5ccccc5)n[nH]c4c3)c2)s1` [Example 5(a), 5-Methyl-thiazole-2-carboxylic Acid {3-(3-Styryl-1H-indazol-6-yloxy)-phenyl]-amide], in data set [1], the affinity corresponds to a Ki of 0.03 nM.

On to `COCOc1ccc(Oc2ccc3c(/C=C/c4ccccc4)n[nH]c3c2)cc1` [Example 8(b), 3-(E-Styryl)-6-[4-(methoxymethoxy)phenoxy]-1H-indazole], for which the affinity in data set [1], expressed as Ki, was 72 nM. This Ki is about 2400-fold higher than that of the compound before.

The compound `Oc1ccc(Oc2ccc3c(/C=C/c4ccccc4)n[nH]c3c2)cc1` [Example 9(b), 3-(E-Styryl)-6-[4-hydroxyphenoxy]-1H-indazole] returned a Ki in data set [1] of 24 nM.

`CN(c1cccc(NC(=O)OCc2ccccc2)c1)c1ccc2c(/C=C/c3ccccc3)n[nH]c2c1` [Example 12(c), {3-[Methyl-(3-styryl-1H-indazol-6-yl)-amino]-phenyl}-carbamic Acid Benzyl Ester] registered an inhibition constant (Ki) in data set [1] of 1.6 nM.

The compound `CN(c1ccccc1)c1ccc2c(/C=C/c3ccccc3)n[nH]c2c1` [Example 14, Methyl-phenyl-(3-styryl-1H-indazol-6-yl)-amine] showed a Ki in data set [1] of 15 nM. This Ki lies about 9.4-fold higher than the previous one.

`CN(c1cccc(NC(=O)c2cccc(C(F)(F)F)c2)c1)c1ccc2c(/C=C/c3ccc4c(c3)OCO4)n[nH]c2c1` [Example 16(d), N-(3-{[3-(2-Benzo[1,3]dioxol-5-yl-vinyl)-1H-indazol-6-yl]-methyl-amino}-phenyl)-3-trifluoromethyl-benzamide]: the Ki in data set [1] was 0.43 nM.

Take `CC(=O)c1cccc(C(=O)Nc2cccc(N(C)c3ccc4c(/C=C/c5ccc6c(c5)OCO6)n[nH]c4c3)c2)c1` [Example 16(e), 3-Acetyl-N-(3-{[3-(2-benzo[1,3]dioxol-5-yl-vinyl)-1H-indazol-6-yl]-methyl-amino}-phenyl)-benzamide]: the affinity in data set [1] corresponds to a Ki of 1.3 nM.

For the compound `Nc1cccc(C(=O)c2ccc3c(/C=C/c4ccccc4)n[nH]c3c2)c1` [Example 18, (3-Amino-phenyl)-(3-styryl-1H-indazol-6-yl)-methanone], in data set [1], the Ki was 12.5 nM. Against the preceding compound, the Ki is about 9.6-fold higher.

In the case of `O=C(c1cccc(NC(=O)c2cc(Cl)ccn2)c1)c1ccc2c(/C=C/c3ccccc3)n[nH]c2c1` [Example 19(n), 6-[3-(4-Chloropyridin-2-ylcarboxamido)benzoyl]-3-E-styryl-1H-indazole], in data set [1], the Ki was 0.54 nM. Against the preceding compound, the Ki is about 23-fold lower.

In the case of `CNC(C(=O)Nc1cccc(C(=O)c2ccc3c(/C=C/c4ccccc4)n[nH]c3c2)c1)c1ccccc1` (centres unmarked) [Example 19(p), 6-[3-(2-Methylamino-2-phenylacetamido)benzoyl]-3-E-styryl-1H-indazole], the Ki in data set [1] was 1.5 nM.

With `CN(O)C(=O)c1ccccc1Sc1ccc2c(/C=C/c3ccccn3)n[nH]c2c1` [Example 35(o), 6-[2-(N-Hydroxy-N-methylcarbamoyl)phenylsulfanyl]-3-E-[2-(pyridin-2-yl)ethenyl]-1H-indazole], the IC50 in data set [2] was greater than 100 nM. Moreover, in data set [3] (setting [4]), the AUClast came to 683 ng·h/mL, the Cmax came to 486 ng/mL and the “plasma half-life (T1/2)” value stood at 1.0 h. In addition, the concentration at 7 h in data set [3] (setting [5]) is 3 ng/mL.

Take `O=C(NCc1ccncc1)c1ccccc1Sc1ccc2c(/C=C/c3ccccn3)n[nH]c2c1` [Example 35(p), 6-[2-((Pyrid-4-yl)methylcarbamoyl)phenylsulfanyl]-3-E-[2-(pyridin-2-yl)ethenyl]-1H-indazole]: the IC50 in data set [2] was greater than 30 nM. Further, in data set [3] (setting [4]), the AUClast came out at 1435 ng·h/mL and the “plasma half-life (T1/2)” value amounted to 1.3 h. Further, the concentration at 7 h in data set [3] (setting [5]) is 5 ng/mL.

As for `CCc1cc(C(=O)Nc2cccc(C(=O)c3ccc4c(/C=C/c5ccccn5)n[nH]c4c3)c2)n(C)n1` [Example 41(v), 6-[3-((3-Ethyl-1-methyl-1H-pyrazol-5-yl)carboxamido)benzoyl]-3-E-[2-(pyridin-2-yl)ethenyl]-1H-indazole], in data set [3] (setting [4]), the AUClast is 10949 ng·h/mL and the “plasma half-life (T1/2)” value came to 4.4 h. The concentration at 7 h in data set [3] (setting [5]) is 749 ng/mL.

`CC(C)COC(=O)Nc1cccc(C(=O)c2ccc3c(/C=C/c4ccccn4)n[nH]c3c2)c1` [Example 41(y)]: in data set [3] (setting [4]), the AUClast entry is given as “Blq”, the Cmax result is given as “Blq”, the “Cmin (7 hr conc.)” value is “blq” and the “plasma half-life (T1/2)” value is “blq”.

For `Cc1cc(C(=O)Nc2cc(Nc3ccc4c(/C=C/c5ccccn5)n[nH]c4c3)c(F)cc2C)n(C)n1` [Example 48(b), 6N-(5-((1,3-Dimethyl-1H-pyrazol-5-yl)carboxanddo)-2-fluoro-4-methylphenyl)aminol-3-E-[2-(pyridin-2-yl)ethenyl]-1H-indazole], in data set [2], the IC50 is roughly 8 nM. For the same compound, in data set [3] (setting [4]), the AUClast amounted to 2191 ng·h/mL and the “plasma half-life (T1/2)” value is 4 h. Further, the concentration at 7 h in data set [3] (setting [5]) was found to be 136 ng/mL.

As for `Cc1cc(C(=O)Nc2cc(Nc3ccc4c(/C=C/c5ccccn5)n[nH]c4c3)ccc2C)n(C)n1` [Example 49(b), 6-[N-(3-((1,3-Dimethyl-1H-pyrazol-5-yl)carboxamido)-4-methylphenyl)amino]-3-E-[2-(pyridin-2-yl)ethenyl]-1H-indazole], the half-inhibitory concentration (IC50) in data set [2] was roughly 10 nM. In data set [3] (setting [4]), this compound displayed an AUClast of 33750 ng·h/mL and a Cmax of 5000 ng/mL. Further, the concentration at 7 h in data set [3] (setting [5]) came to 5000 ng/mL.

Consider `CCn1nc(C)cc1C(=O)Nc1cccc(C(=O)c2ccc3c(/C=C/c4ccccn4)n[nH]c3c2)c1.Cl` [Example 59(a), 6-[3-((1-Ethyl-3-methyl-1H-pyrazol-5-yl)carboxamido)benzoyl]-3-E-[2-(pyridin-2-yl)ethenyl]-1H-indazole Hydrochloride], for which the “plasma half-life (T1/2)” value stood at 1.5 h in data set [3] (8 mg/kg, vehicle 0.5% CMC); 2.4 h in data set [3] (40 mg/kg, vehicle 0.5% CMC); 9.4 h in data set [3] (200 mg/kg, vehicle 0.5% CMC). The AUC(0-t) in data set [3] (setting [6]) amounted to 7710 ng·h/mL; in data set [3] (setting [9]) it was 50800 ng·h/mL; in data set [3] (setting [12]), 57200 ng·h/mL; in data set [3] (setting [15]), 156000 ng·h/mL. In addition, the Cmax is 2490 ng/mL in data set [3] (setting [7]), 15900 ng/mL in data set [3] (setting [10]), 13800 ng/mL in data set [3] (setting [13]) and 30000 ng/mL in data set [3] (setting [16]). In addition, the concentration at 7 h was determined as 122 ng/mL in data set [3] (setting [8]), 1200 ng/mL in data set [3] (setting [11]), 1880 ng/mL in data set [3] (setting [14]) and 12100 ng/mL in data set [3] (setting [17]).

For `Cc1cc(C(=O)Nc2cccc(C(=O)c3ccc4c(/C=C/c5ccccn5)n[nH]c4c3)c2)n(C)n1.Cl` [Example 59(b), 6-[3-((1,3-Dimethyl-1H-pyrazol-5-yl)carboxamido)benzoyl]-3-E-[2-(pyridin-2-yl)ethenyl]-1H-indazole Hydrochloride], the AUC(0-t) in data set [3] (female, 50 mg/kg, vehicle CMC) was 276000 ng·h/mL. Moreover, the concentration at 7 hr in data set [3] (female, 50 mg/kg, vehicle CMC, read-out: Cmin (7 hr conc.)) is 26900 ng/mL.

Compound `CCn1nc(C)cc1C(=O)Nc1cc(Nc2ccc3c(/C=C/c4ccccn4)n[nH]c3c2)c(F)cc1C.Cl` [Example 59(c), 6-[N-(5-((1-Ethyl-3-methyl-1H-pyrazol-5-yl)carboxamido)-2-fluoro-4-methylphenyl)amino]-3-E-[2-(pyridin-2-yl)ethenyl]-1H-indazole Hydrochloride] displayed an AUC(0-t) in data set [3] (female, 25 mg/kg, vehicle CMC) of 327000 ng·h/mL. In addition, the Cmax in data set [3] (female, 25 mg/kg, vehicle CMC, read-out: Cmax) came to 50000 ng/mL.

For the compound `Cc1cc(C(=O)Nc2cc(Nc3ccc4c(/C=C/c5ccccn5)n[nH]c4c3)ccc2F)n(C)n1.Cl` [Example 59(d), 6-[N-(3-((1,3-Dimethyl-1H-pyrazol-5-yl)carboxamido)4-fluoro-phenyl)amino]-3-E-[2-(pyridin-2-yl)ethenyl]-1H-indazole Hydrochloride], the AUC(0-t) is greater than 24700 ng·h/mL in data set [3] (setting [6]), greater than 32300 ng·h/mL in data set [3] (setting [12]) and greater than 123000 ng·h/mL in data set [3] (setting [15]). Moreover, the Cmax is greater than 5000 ng/mL in data set [3] (setting [7]), greater than 5000 ng/mL in data set [3] (setting [13]) and greater than 20000 ng/mL in data set [3] (setting [16]). Further, the concentration at 7 h in data set [3] (setting [8]) amounted to 1900 ng/mL; in data set [3] (setting [14]) it was 4140 ng/mL; in data set [3] (setting [17]) it was 12700 ng/mL.

Turning to `CCn1nc(C)cc1C(=O)Nc1cccc(Oc2ccc3c(/C=C/c4ccccn4)n[nH]c3c2)c1.Cl` [Example 59(e), 6-[3-((1-Ethyl-3-methyl-1H-pyrazol-5-yl)carboxamido)phenoxy]-3-E-[2-(pyridin-2-yl)ethenyl]-1H-indazole Hydrochloride], the “plasma half-life (T1/2)” value in data set [3] (25 mg/kg, vehicle 0.5% CMC) was 21 h. Also, in data set [3] (setting [9]), the exposure AUC(0-t) was 12500 ng·h/mL. In addition, the Cmax in data set [3] (setting [10]) came to 28800 ng/mL. In data set [3] (setting [11]), the concentration at 7 h turned out to be 2140 ng/mL.
